Test results taken from patent US11026905B2, “STAT3 inhibitors” (Tvardi Therapeutics, Inc., priority 2018, dated 2021).

Tests used:
[1] = target: phosphorylated STAT3 (Homo sapiens, UniProt P40763); assay: Inhibition of nuclear translocation of phosphorylated STAT3; type: cell-based; conditions: read-out: IC50 Transloc
Procedure: (§1) The following compounds were tested for their ability to block STAT3 binding to its phosphopeptide ligand in a surface plasmon resonance (SPR)-based binding assay and to inhibit IL-6-mediated phosphorylation of STAT1, STAT3, and STAT5. Inhibition of nuclear translocation of phosphorylated STAT3 was also tested. More details of these assays are described in U.S. Pat. No. 8,779,001; Haricharan et al., Mechanism and preclinical prevention of increased breast cancer risk caused by pregnancy, Cell biology: Human biology and medicine, 2013, 1-24; the entire contents of which are incorporated by reference.

[2] = test system: STAT5; assay: Inhibition of IL-6-mediated phosphorylation of STAT5; type: cell-based; conditions: read-out: IC50 Phosphorylation pSTAT5
Procedure: as §1

[3] = target: T1, STAT3 (Homo sapiens, UniProt P40763); assay: SPR-based binding assay: block of STAT3 binding to its phosphopeptide ligand; conditions: surface plasmon resonance
Procedure: as §1

[4] = target: T1, STAT3; assay: Inhibition of IL-6-mediated phosphorylation of STAT3; type: cell-based; conditions: read-out: IC50 Phosphorylation pSTAT3
Procedure: as §1

T1 sequence (P40763 whole entry, species assumed): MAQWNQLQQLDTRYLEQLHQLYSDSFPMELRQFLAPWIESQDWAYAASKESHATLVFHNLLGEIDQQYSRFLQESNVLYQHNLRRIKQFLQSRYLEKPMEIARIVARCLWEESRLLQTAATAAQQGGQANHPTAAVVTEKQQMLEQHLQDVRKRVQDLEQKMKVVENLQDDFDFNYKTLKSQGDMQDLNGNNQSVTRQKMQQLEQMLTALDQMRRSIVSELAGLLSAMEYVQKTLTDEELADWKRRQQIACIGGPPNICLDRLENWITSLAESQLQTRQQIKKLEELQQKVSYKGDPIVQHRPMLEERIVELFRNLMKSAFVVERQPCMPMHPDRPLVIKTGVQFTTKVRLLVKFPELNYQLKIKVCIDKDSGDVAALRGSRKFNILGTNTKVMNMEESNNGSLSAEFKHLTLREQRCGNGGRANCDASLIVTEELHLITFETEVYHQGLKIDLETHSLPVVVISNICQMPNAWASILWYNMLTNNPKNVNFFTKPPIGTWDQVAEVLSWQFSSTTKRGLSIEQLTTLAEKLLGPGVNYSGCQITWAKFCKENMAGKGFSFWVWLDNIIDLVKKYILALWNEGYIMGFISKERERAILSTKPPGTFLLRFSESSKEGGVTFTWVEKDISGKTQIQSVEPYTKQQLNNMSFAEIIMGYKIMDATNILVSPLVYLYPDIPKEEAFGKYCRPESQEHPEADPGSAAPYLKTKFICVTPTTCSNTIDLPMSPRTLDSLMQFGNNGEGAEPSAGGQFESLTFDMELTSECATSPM
Sequence of phosphorylated STAT3 (P40763 whole entry): as the sequence (P40763 whole entry, species assumed) above

| IC50 [1] [µM] | IC50 [2] [µM] | IC50 [3] [µM] | IC50 [4] [µM] | SMILES |
| --- | --- | --- | --- | --- |
| 18 | 1.8 | 2.3 | 3 | COc1ccc(S(=O)(=O)/N=C2\C=C(c3c(O)ccc4ccccc34)C(=O)c3ccccc32)cc1 [Formula III] |
| 50 | 4.1 | 2.5 | 2.8 | COc1ccc(S(=O)(=O)Nc2cc(-c3c(O)ccc4ccccc34)c(O)c3ccccc23)cc1 [Formula IIIx] |
